Experiment: Dissolution rate of orlistat powder raw material
Assay type: physicochemical
Experimental: Orlistat is a drug having a melting point as low as 43° C., and is commercially available in a powder form. The dissolution rate of orlistat undergoing no denaturation under good storage conditions is about 60%. […] In addition, when raw materials of orlistat are exposed to high temperature during transport, the powder particles of orlistat rapidly aggregate. Thereafter, the aggregates remain even when being cooled, causing damage to the dissolution of orlistat.

## CCCCCCCCCCC[C@@H](C[C@@H]1OC(=O)[C@H]1CCCCCC)OC(=O)[C@H](CC(C)C)NC=O [orlistat]
Orlistat raw material exposed to high temperature during transport, particles aggregated
  dissolution rate: ≤ 40%
Orlistat undergoing no denaturation under good storage conditions
  dissolution rate: about 60%
